# Read-outs that look alike come from different tables or passages of the source. Residues, ends and D or L forms follow the SMILES beside them.
# Assays:
# [1] = system: S. aureus ATCC 43300; assay: MIC/MBC broth microdilution, S. aureus; type: cell-based, Staphylococcus aureus; settings: S. aureus
# [2] = system: S. pyogenes ATCC 19615; assay: MIC/MBC broth microdilution, S. pyogenes; type: cell-based, Streptococcus pyogenes
# Method in brief: (§1)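 Standard NCCLS broth microdilution in BHI broth, inoculum approx. 10^5 CFU/mL, serially diluted peptidomimetics, 18 h at 37 °C. MIC was the lowest concentration with no obvious growth (≥90% inhibition versus untreated); MBC was the lowest giving ≤3 colonies on subculture (≥99.9% kill).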
# [3] = system: S. cohnii c.i.; assay: MIC/MBC broth microdilution, S. cohnii; type: cell-based, Staphylococcus cohnii; settings: for MIC: read-out: MIC
# Method in brief: as §1
# [4] = system: E. faecalis c.i.; assay: MIC/MBC broth microdilution, E. faecalis; type: cell-based, Enterococcus faecalis
# Method in brief: as §1
# [5] = system: S. schleiferi c.i.; assay: MIC/MBC broth microdilution, S. schleiferi; type: cell-based, Staphylococcus schleiferi
# Method in brief: as §1
# [6] = system: S. agalactiae ATCC 27956; assay: MIC/MBC broth microdilution, S. agalactiae; type: cell-based, Streptococcus agalactiae; settings: Streptococcus agalactiae, ATCC27956, S. agalactiae; for MBC: read-out: MBC; for MIC: read-out: MIC
# Method in brief: as §1
# [7] = system: S. intemrdius c.i.; assay: MIC/MBC broth microdilution, S. intermedius; type: cell-based, Staphylococcus intermedius
# Method in brief: as §1
# [8] = system: S. mutans c.i.; assay: MIC/MBC broth microdilution, S. mutans; type: cell-based, Streptococcus mutans
# Method in brief: as §1
# [9] = system: E. coli ATCC 25922; assay: MIC/MBC broth microdilution, E. coli; type: cell-based, Escherichia coli
# Method in brief: as §1
# [10] = system: P. vulgaris ATCC 6896; assay: MIC/MBC broth microdilution, P. vulgaris; type: cell-based, Proteus vulgaris
# Method in brief: as §1
# [11] = system: K. pneumoniae ATCC 700603; assay: MIC/MBC broth microdilution, K. pneumoniae; type: cell-based
# Method in brief: as §1
# [12] = system: P. aeruginosa ATCC 10145; assay: MIC/MBC broth microdilution, P. aeruginosa; type: cell-based
# Method in brief: as §1
# [13] = system: primary human keratinocytes; design: method as in PMID 28110818; settings: concentrations up to 50 μg/mL; reference number not given, probably ref 22; cited from earlier work
# [14] = Stability / presence in human plasma; type: in vitro ADME; settings: 24 h incubation at 37 °C
# Experimental: Blood was drawn from healthy volunteers, and lithium/heparin holding tubes were used to remove the clot by centrifugation. The plasma was aliquoted in sterile conditions and incubated with the desired compounds for 24 h at 37 °C. The samples were prepared under sterile conditions following the previously described protocol. The samples were collected at six time points (0, 1, 2, 3, 6, and 24 h) for determining stability in water solutions, and time points of 0, 10, 20, 30, 40, 50, and 60 min, as well as of 2, 3, 6, and 24 h, for determining stability in human plasma. The analysis was performed by HPLC using a Kromasil C8 column (5 μm, 90 Å, 1.0 mm × 250 mm) monitored by a PDA or ELDS-LT II detector. For quantification, peak areas were compared to a calibration curve calculated by Shimadzu LCsolution Software (Kyoto, Japan). Graphs were prepared in GraphPad Prism (Boston, USA).
# [15] = system: immortalized human keratinocytes (HaCaT); assay: LDH cytotoxicity test, keratinocytes; type: cell-based; settings: LDH, 48 h
# Method in brief: (§2)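 HaCaT keratinocytes and 46BR.1N fibroblasts, 5000 cells per well, grown 24 h, then exposed to peptidomimetics at 50, 100 and 150 μg/mL in serum-free medium for 48 h. LDH release in supernatant read at 450 nm, normalized to untreated (0%) and 1% Triton X-100 (maximal) controls.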
# [16] = system: fibroblasts (46BR.1N); assay: LDH cytotoxicity test, fibroblasts; type: cell-based; settings: LDH, 48 h
# Method in brief: as §2
# [17] = system: immortalized human HaCaT keratinocytes; assay: XTT cell proliferation assay, keratinocytes; type: cell-based
# Method in brief: (§3)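 Cells at 37 °C, 5% CO2 received peptidomimetics in serum-free HG-DMEM for 48 or 72 h; for 72 h, half the medium was renewed and peptide re-added at 48 h. XTT reagent was then incubated 4 h and absorbance read at 490 nm; Mann–Whitney U test, p ≤ 0.05.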
# [18] = system: human dermal fibroblast cell line (46BR.1N); assay: XTT cell proliferation assay, fibroblasts; type: cell-based
# Method in brief: as §3
# [19] = cited from earlier work
# [20] = S. pyogenes, water additive EtOH
# [21] = Staphylococcus intermedius, H2O
# [22] = Staphylococcus intermedius, water additive DMSO
# [23] = Staphylococcus intermedius, water additive EtOH
# [24] = A-196 0.01–10 μg/mL, A-219 above 0.1 μg/mL, A-213 lower concentrations
# [25] = up to 150 μg/mL, A-193 and A-179 after 48 h
structure (smiles),measurement,setting,value
CC(C)C[C@H](NC(=O)[C@H](CCCNC(=N)N)NC(=O)OCc1ccccc1)C(=O)N[C@H](CNC(=O)/C=C/c1ccccc1)C(C)C [Compound A-20],MBC,[1]; water additive DMSO,32 µg/mL
same,MIC,[1]; water additive DMSO,16 µg/mL
same,MBC,[1]; water additive EtOH,32 µg/mL
same,MIC,[1]; water additive EtOH,16 µg/mL
same,MBC,"[1]; Staphylococcus aureus, ATCC43300, H2O, read-out: MBC",32 µg/mL
same,MIC,"[1]; Staphylococcus aureus, ATCC43300, H2O, read-out: MIC",16 µg/mL
same,MIC,"[2]; S. pyogenes, H2O",8 µg/mL
same,MIC,[2]; [20],8 µg/mL
same,MBC,"[2]; Streptococcus pyogenes, ATCC19615, S. pyogenes, H2O, read-out: MBC",16 µg/mL
same,MBC,"[2]; Streptococcus pyogenes, ATCC19615, S. pyogenes, water additive EtOH, read-out: MBC",16 µg/mL
same,MBC,"[2]; Streptococcus pyogenes, ATCC19615, S. pyogenes, water additive DMSO, read-out: MBC",8 µg/mL
same,MIC,"[2]; Streptococcus pyogenes, ATCC19615, S. pyogenes, water additive DMSO, read-out: MIC",8 µg/mL
same,MBC,"[3]; Staphylococcus cohnii, H2O, read-out: MBC",64 µg/mL
same,MIC,"[3]; Staphylococcus cohnii, H2O",128 µg/mL
same,MIC,"[3]; Staphylococcus cohnii, water additive DMSO",64 µg/mL
same,MIC,"[3]; Staphylococcus cohnii, water additive EtOH",64 µg/mL
same,MBC,"[4]; Enterococcus faecalis, H2O, read-out: MBC",256 µg/mL
same,MIC,"[4]; Enterococcus faecalis, H2O, read-out: MIC",128 µg/mL
same,MBC,[4]; water additive DMSO,256 µg/mL
same,MBC,[4]; water additive EtOH,256 µg/mL
same,MBC,"[5]; Staphylococcus schleiferi, H2O, read-out: MBC",16 µg/mL
same,MIC,"[5]; Staphylococcus schleiferi, H2O, read-out: MIC",16 µg/mL
same,MBC,"[5]; Staphylococcus schleiferi, water additive DMSO, read-out: MBC",8 µg/mL
same,MIC,"[5]; Staphylococcus schleiferi, water additive DMSO, read-out: MIC",8 µg/mL
same,MBC,"[5]; Staphylococcus schleiferi, water additive EtOH, read-out: MBC",16 µg/mL
same,MIC,"[5]; Staphylococcus schleiferi, water additive EtOH, read-out: MIC",16 µg/mL
same,MBC,[6]; H2O,256 µg/mL
same,MIC,[6]; H2O,128 µg/mL
same,MBC,[6]; water additive DMSO,64 µg/mL
same,MIC,[6]; water additive DMSO,32 µg/mL
same,MBC,[6]; water additive EtOH,128 µg/mL
same,MIC,[6]; water additive EtOH,64 µg/mL
same,MBC,[7]; [21],64 µg/mL
same,MIC,[7]; [21],32 µg/mL
same,MBC,[7]; [22],32 µg/mL
same,MIC,[7]; [22],16 µg/mL
same,MBC,[7]; [23],64 µg/mL
same,MIC,[7]; [23],32 µg/mL
same,MIC,"[8]; Streptococcus mutans, H2O, read-out: MIC",16 µg/mL
same,MIC,[8]; water additive DMSO,16 µg/mL
same,MIC,[8]; water additive EtOH,16 µg/mL
same,MBC,"[9]; Escherichia coli, ATCC25922, H2O, read-out: MBC",512 µg/mL
same,MIC,"[9]; Escherichia coli, ATCC25922, H2O, read-out: MIC",256 µg/mL
same,MBC,[9]; water additive DMSO,512 µg/mL
same,MIC,[9]; water additive DMSO,256 µg/mL
same,MBC,[9]; water additive EtOH,512 µg/mL
same,MIC,[9]; water additive EtOH,256 µg/mL
same,MIC,"[10]; Proteus vulgaris, ATCC6896, H2O, read-out: MIC",> 512 µg/mL
same,MIC,[10]; water additive DMSO,> 512 µg/mL
same,MIC,[10]; water additive EtOH,> 512 µg/mL
same,MIC,"[11]; Klebsiella pneumoniae, ATCC700603, H2O, read-out: MIC",> 512 µg/mL
same,MIC,[11]; water additive DMSO,> 512 µg/mL
same,MIC,[11]; water additive EtOH,> 512 µg/mL
same,MIC,"[12]; Pseudomonas aeruginosa, ATCC10145, H2O, read-out: MIC",> 512 µg/mL
same,MIC,[12]; water additive DMSO,> 512 µg/mL
same,MIC,[12]; water additive EtOH,> 512 µg/mL
same,impact on proliferation,[13],no impact on the proliferation
CC(C)C[C@H](NC(=O)[C@H](CCCNC(=N)N)NC(=O)OCc1ccccc1)C(=O)N[C@H](C(=O)NCCc1ccccc1)C(C)C [Compound A-196] (HELM PEPTIDE1{[O=C(OCc1ccccc1)[*:2]].R.L.V.[c1ccc(CCN[*:1])cc1]}$$$$V2.0),MBC,[1]; H2O,256 µg/mL
same,MBC,[1]; water additive DMSO,256 µg/mL
same,MBC,"[2]; S. pyogenes, water additive DMSO",256 µg/mL
same,MBC,[2]; [20],256 µg/mL
same,MBC,[3]; water additive DMSO,256 µg/mL
same,MBC,[3]; water additive EtOH,256 µg/mL
same,MIC,[4]; H2O,> 512 µg/mL
same,MIC,[4]; water additive DMSO,> 512 µg/mL
same,MBC,[4]; water additive EtOH,> 512 µg/mL
same,MIC,[4]; water additive EtOH,512 µg/mL
same,MBC,[5]; H2O,16 µg/mL
same,MIC,[5]; H2O,16 µg/mL
same,MBC,[5]; water additive DMSO,16 µg/mL
same,MIC,[5]; water additive DMSO,16 µg/mL
same,MBC,[5]; water additive EtOH,32 µg/mL
same,MIC,[5]; water additive EtOH,16 µg/mL
same,MIC,[7]; H2O,32 µg/mL
same,MBC,[8]; H2O,256 µg/mL
same,MIC,[8]; water additive DMSO,32 µg/mL
same,MIC,[9]; H2O,> 512 µg/mL
same,MIC,[9]; water additive DMSO,> 512 µg/mL
same,MIC,[9]; water additive EtOH,> 512 µg/mL
same,MIC,[10]; H2O,> 512 µg/mL
same,MIC,[10]; water additive DMSO,> 512 µg/mL
same,MIC,[10]; water additive EtOH,> 512 µg/mL
same,MIC,[11]; H2O,> 512 µg/mL
same,MIC,[11]; water additive DMSO,> 512 µg/mL
same,MIC,[11]; water additive EtOH,> 512 µg/mL
same,MIC,[12]; H2O,> 512 µg/mL
same,MIC,[12]; water additive DMSO,> 512 µg/mL
same,MIC,[12]; water additive EtOH,> 512 µg/mL
same,present in human plasma,[14],85–90%
same,concentration at which cytotoxic effect starts,[15],150 µg/mL
same,concentration at which cytotoxic effect starts,[16],150 µg/mL
same,pro-proliferative effect above control,[17]; [24],5–20%
same,antiproliferative effect (decrease vs control),[17]; [25],up to 50%
same,pro-proliferative effect above control,[18]; [24],5–20%
same,antiproliferative effect (decrease vs control),[18]; [25],up to 50%
CNC(C)C1CCC(N)C(OC2C(N)CC(N)C(OC3OCC(C)(O)C(NC)C3O)C2O)O1 (stereo not shown) [gentamicin],VD values,[19]; in vivo,−0.699 to −0.432 log L/kg
CN[C@H](CC(C)C)C(=O)N[C@H]1C(=O)N[C@@H](CC(N)=O)C(=O)N[C@H]2C(=O)N[C@H]3C(=O)N[C@H](C(=O)N[C@H](C(=O)O)c4cc(O)cc(O)c4-c4cc3ccc4O)[C@H](O)c3ccc(c(Cl)c3)Oc3cc2cc(c3O[C@@H]2O[C@H](CO)[C@@H](O)[C@H](O)[C@H]2O[C@H]2C[C@](C)(N)[C@H](O)[C@H](C)O2)Oc2ccc(cc2Cl)[C@H]1O [vancomycin],VD values,"[19]; reference number not given, probably ref 84, 85",−0.398 to 0 log L/kg
